Our source for the IC50 values is BindingDB's records for doi:10.1016/j.bmcl.2005.11.059 (University of Kansas, 2006).

Chain of Toll-like receptor 4 (O00206 whole entry): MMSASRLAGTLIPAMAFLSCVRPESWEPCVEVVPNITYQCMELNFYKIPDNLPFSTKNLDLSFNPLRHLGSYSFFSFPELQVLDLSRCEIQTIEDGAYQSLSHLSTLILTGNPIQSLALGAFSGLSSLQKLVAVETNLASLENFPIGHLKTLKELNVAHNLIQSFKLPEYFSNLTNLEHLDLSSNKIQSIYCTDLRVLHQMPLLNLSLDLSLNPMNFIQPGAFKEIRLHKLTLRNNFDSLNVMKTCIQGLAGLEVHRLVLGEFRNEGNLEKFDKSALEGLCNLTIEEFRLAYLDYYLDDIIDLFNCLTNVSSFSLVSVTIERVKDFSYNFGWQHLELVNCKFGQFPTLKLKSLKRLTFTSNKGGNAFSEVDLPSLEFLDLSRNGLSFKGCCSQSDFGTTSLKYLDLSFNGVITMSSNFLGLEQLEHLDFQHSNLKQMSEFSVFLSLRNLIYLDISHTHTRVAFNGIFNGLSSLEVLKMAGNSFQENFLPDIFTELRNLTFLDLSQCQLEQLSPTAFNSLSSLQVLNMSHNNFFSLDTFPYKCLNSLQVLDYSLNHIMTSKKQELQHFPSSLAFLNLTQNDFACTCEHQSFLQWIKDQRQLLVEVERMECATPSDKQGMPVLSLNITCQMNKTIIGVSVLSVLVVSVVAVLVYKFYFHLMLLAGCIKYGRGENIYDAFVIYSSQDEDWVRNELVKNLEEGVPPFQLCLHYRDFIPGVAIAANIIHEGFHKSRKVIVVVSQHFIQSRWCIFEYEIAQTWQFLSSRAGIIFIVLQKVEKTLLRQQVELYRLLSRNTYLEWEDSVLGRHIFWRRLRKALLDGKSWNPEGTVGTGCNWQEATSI

The assay has as its target Toll-like receptor 4 (Homo sapiens, UniProt O00206). In words: Inhibition of induction of NF-kappaB by LPS in HEK293 cells co-transfected with TLR4, CD14 and MD2.
The compound `C=CCOc1c(C=NN=C(N)N)ccc(C=NN=C(N)N)c1OCC=C` had an IC50 of 61.4 µM. That is a double-digit micromolar value.
As for `CCCOc1c(C=NN=C(N)N)ccc(C=NN=C(N)N)c1OCCC`, the figure is 27.6 µM; as for `CCCCCCCCCCCCCCOc1c(C=NN=C(N)N)ccc(C=NN=C(N)N)c1OCCCCCCCCCCCCCC`, 190 µM; as for `CCCCCCOc1c(C=NN=C(N)N)ccc(C=NN=C(N)N)c1OCCCCCC`, 6.11 µM.
As to `CCCCOc1c(C=NN=C(N)N)ccc(C=NN=C(N)N)c1OCCCC`, half-maximal inhibition (IC50) was put at 9.4 µM. Against the preceding compound, the IC50 is about 1.5-fold higher.
The result for `CCCCCCCCOc1c(C=NN=C(N)N)ccc(C=NN=C(N)N)c1OCCCCCCCC` reads 4.5 µM; that for `NC(N)=NN=Cc1ccc(C=NN=C(N)N)cc1`, 164 µM.
As for `COc1c(C=NN=C(N)N)ccc(C=NN=C(N)N)c1OC`, the figure is 175 µM; as for `CCOc1c(C=NN=C(N)N)ccc(C=NN=C(N)N)c1OCC`, 35.6 µM; as for `CCCCCOc1c(C=NN=C(N)N)ccc(C=NN=C(N)N)c1OCCCCC`, 10.5 µM.
The result for `NC(N)=NN=Cc1ccc(C=NN=C(N)N)c(O)c1O` reads 59.1 µM.

The IC50 is the concentration at which inhibition is half-maximal. Low readings indicate greater potency in that assay, high ones weaker potency in that assay.
